According to patent US20110288154A1, “RNA Interference Mediated Inhibition of Epithelial Sodium Channel (ENaC) Gene Expression Using Short Interfering Nucleic Acid (siNA)” (MERCK & CO., INC., priority 2008, published 2011):
[invAb] = inverted abasic unit; d = 2'-deoxy (DNA); m = 2'-O-methyl; r = 2'-OH (RNA); f = 2'-fluoro

System: mSCNN1A mRNA
Assay: Screening of ENaCα siNAs in mouse NIH 3T3 cells (quantitative RT-PCR)
Assay type: cell-based
Set-up: Percent Reduction of the mSCNN1A mRNA relative to a non-targeting control siNA / Mouse % KD (efficacy of ENaCα mRNA knockdown): concentration or dose not given beside the values
Conditions: mouse NIH 3T3 cells, n = 3; for Mean (mSCNN1A expression normalized to the level of m36B4) / Percent Reduction of the mSCNN1A mRNA relative to a non-targeting control siNA / Avg 36B4 Expression: 24 hours post-transfection; for Avg ENaCα Expression (mSCNN1A): harvested 24 hours post-transfection; for Avg 36B4 Expression: housekeeping gene used for normalisation
Method: siNA constructs (Table 1b) may be tested for efficacy in reducing ENaC RNA expression in, for example, A549 human lung carcinoma cells. A549 (human; ATCC cat# CCL-185) cells were cultured at 37° C. in the presence of 5% CO2 and grown in Ham's F12K medium with 2 mM L-glutamine adjusted to contain 1.5 g/L sodium bicarbonate and supplemented with fetal bovine serum at a final concentration of 10% and 100 U/mL penicillin. The A549 cells were plated approximately 24 hours before transfection in 96-well plates at 7,500 cells/well, 100 μl/well. After 24 hours complexes containing siNA and Lipofectamine 2000 (Invitrogen) were created as follows: a solution of Lipofectamine 2000 in OPTI-MEM was prepared containing Lipofectamine 2000 at a final concentration of 14 μg/ml. In parallel, solutions of the siNAs were prepared in OPTI-MEM at a final concentration of 150 nM. After both solutions were incubated at 20° C. for 20 minutes an equal volume of the siNA solutions and the Lipofectamine 2000 solution were added together for each of the siNAs. The resultant solution has the siNAs at a final concentration of 75 nM and Lipofectamine 2000 at a final concentration of 7 μg/ml. This solution was incubated at 20° C. for 20 minutes. After incubation 50 μl of the solution were added to each of the wells (in triplicate). The final concentration of siNA in each well was 25 nM and the final concentration of Lipofectamine 2000 in each well was 2.33 μg/ml. The plates were incubated for 48 hours with no change of media before harvesting. Dose response curves were determined in a similar manner with each concentration being done in triplicate and maintaining a constant amount of Lipofectamine 2000 in each transfection.
A series of probes and primers were used to detect the various mRNA transcripts of the genes of ENaCa and GAPDH in mouse, rat, and human cell lines. The assays were performed on an ABI 7500 instrument, according to the manufacturer's instructions. Within each experiment, the baseline was set in the exponential phase of the amplification curve, and based on the intersection point of the baselines with the amplification curve, a Ct value was assigned by the instrument. This Ct value was then assigned a QTY value based on the Standard Curve. The standard curve in the various experiments herein used 1 ng to 300 ng of RNA extracted from the same cell line used for the experimental transfections.
All IC50 values were calculated from the data using GraphPad Prizm software, specifically a sigmoidal, variable slope curve for simple ligand binding. Also, unless otherwise indicated, all calculations of the efficacy and potency (e.g., % knockdown) of the siNAs were done relative to a non-targeting control siNA. If reported, P-values were computed using The Students t-test, including the Welch Correction for unequal variances.
In all of the calculations of the % knock-down of mRNA, the calculation was made relative to the normalized level of expression of the gene of interest in the samples treated with the non-targeting control (NTC) unless otherwise indicated. The gene of interest expression level was divided by the level of expression of GAPDH or 36B4 (depending on the species) in each sample. The three replicates for each condition in each experiment were averaged and the standard deviation of those samples was calculated. The following formula was then used to calculate the % of knock-down of the gene of interest:
The ENaCα siNAs were designed and synthesized as described previously. The siNAs were screened in three cell lines. Human A549 cells, mouse NIH 3T3 and Rat H-4-II-E cells. The data from the screen of ENaCa siNAs in all three species is shown in Tables 3a, 3b, 4a, 4b, 5a, and 5b and a summary of the data for certain siNA molecules is presented in Table 6. Each screen was performed at 24 hrs. The decision to use this time point was based upon the degree of knockdown of the mRNA seen at that time point.

Substance: B AAccGCAuGAAGAcGGccu TTB / AGGccGucuucAuGcGGuuUU (chain 1 AACCGCAUGAAGACGGCCUTT; chain 2 AGGCCGUCUUCAUGCGGUUUU; siRNA; chain 1: sugars from the 5' end ddffdddfdddddfddfffdd, [invAb] at 5' end, 3' end, backbone not given here; chain 2: sugars from the 5' end rrrffmfffffmfmfmmffmm, backbone not given here) [Site 337]
- Mean (mSCNN1A expression normalized to the level of m36B4): 0.24
- Percent Reduction of the mSCNN1A mRNA relative to a non-targeting control siNA: 0.8%
- Avg ENaCα Expression (mSCNN1A): 3.42
- Avg 36B4 Expression: 14.44

Substance: B GuGGcuGuGccuAcAucuu TTB / AAGAuGuAGGcAcAGccAcUU (sense GUGGCUGUGCCUACAUCUUTT; antisense AAGAUGUAGGCACAGCCACUU; siRNA; sense: DNA at AGT, 2'-fluoro at CU, [invAb] at 5' end, 3' end, backbone not given here; antisense: sugars from the 5' end rrrmfmfmmmfmfmmffmfmm, backbone not given here) [Site 1385]
- Mean (mSCNN1A expression normalized to the level of m36B4): 0.13
- Percent Reduction of the mSCNN1A mRNA relative to a non-targeting control siNA: 4.4%
- Avg ENaCα Expression (mSCNN1A): 2.95
- Avg 36B4 Expression: 22.75

Substance: B GuccAAccuGGGcAGccAG TTB / CUGGcuGcccAGGuuGGAcUU (sense GUCCAACCUGGGCAGCCAGTT; antisense CUGGCUGCCCAGGUUGGACUU; siRNA; sense: DNA at AGT, 2'-fluoro at CU, [invAb] at 5' end, 3' end, backbone not given here; antisense: sugars from the 5' end rmmmffmfffmmmffmmmfmm, backbone not given here) [Site 1743]
- Mean (mSCNN1A expression normalized to the level of m36B4): 0.13
- Percent Reduction of the mSCNN1A mRNA relative to a non-targeting control siNA: 6.7%
- Avg ENaCα Expression (mSCNN1A): 2.87
- Avg 36B4 Expression: 22.47

Substance: B ccGcAuGAAGAcGGccuuc TTB / GAAGGccGucuucAuGcGGUU (chain 1 CCGCAUGAAGACGGCCUUCTT; chain 2 GAAGGCCGUCUUCAUGCGGUU; siRNA; chain 1: DNA at AGT, 2'-fluoro at CU, [invAb] at 5' end, 3' end, backbone not given here; chain 2: sugars from the 5' end rrrmmffmfffffmfmfmmmm, backbone not given here) [Site 339]
- Mean (mSCNN1A expression normalized to the level of m36B4): 0.35
- Percent Reduction of the mSCNN1A mRNA relative to a non-targeting control siNA: −44.9%
- Avg ENaCα Expression (mSCNN1A): 5.05
- Avg 36B4 Expression: 14.61

Substance: B AAccuGGGcAGccAGuGGA TTB / UCCAcuGGcuGcccAGGuuUU (sense AACCUGGGCAGCCAGUGGATT; antisense UCCACUGGCUGCCCAGGUUUU; siRNA; sense: sugars from the 5' end ddfffdddfddffddfddrdd, [invAb] at 5' end, 3' end, backbone not given here; antisense: sugars from the 5' end rrrmffmmffmfffmmmffmm, backbone not given here) [Site 1747]
- Mean (mSCNN1A expression normalized to the level of m36B4): 0.15
- Percent Reduction of the mSCNN1A mRNA relative to a non-targeting control siNA: −6.1%
- Avg ENaCα Expression (mSCNN1A): 3.67
- Avg 36B4 Expression: 25.19
